Columns and labels:
[1] = FaSSIF vs PBS; ref Ryan et al., 2021; cited from earlier work
From the text: The pH in FaSSIF is 6.5, and the pI of Trn α and Trn β is close to 4, so the thuricin CD peptides should both be slightly negatively charged in this solution (ExPASy, 2022), helping their dissolution in this medium. Also, it has been previously reported that lacticin 3147, a two peptide bacteriocin with similar ...

[2] = molecular target: T1, pepsin (Sus scrofa, UniProt P00791); assay: Enzymatic degradation of dissolved thuricin CD by pepsin (residual antibacterial activity); format: in vitro ADME; conditions: 5.6 μg/mL Trn α + 5.8 μg/mL Trn β
T1 construct: purchased Sigma Aldrich Ireland Ltd
Description: Trn α and Trn β stock solutions (1 mg/mL in 70 % IPA 0.1 % TFA in water) were filter sterilized and diluted to a final concentration of 100 μg/mL in sterile PBS. Pepsin activity was evaluated beforehand according to the haemoglobin assay, based on the principle that haemoglobin in water produces tyrosine peptides soluble in trichloroacetic acid (TCA) when pepsin is applied ([Brodkorb, 2019]). The activity units (AU or μmol/min), defined as the quantity of the enzyme that converts one micromole of substrate per minute, were determined before this test. Pepsin was suspended in cold 0.01 M HCl pH 2 reaching 824 activity units per mL. Trn α and Trn β were added to the same well of a 96-well plate in triplicate to give a final concentration of 5.6 μg/mL and 5.8 μg/mL respectively. […] 25 μL of pepsin solution was also added to each of the wells. This gave a final pepsin concentration/activity of 1.2 mg/mL or 98.8 AU/mL, which is the approximate concentration of enzyme present in the human stomach ([Liu, 2015]). Thuricin alone and pepsin alone were included as control samples with the bacterial culture. Blanks were set up in triplicate with PBS, 0.01 M HCl, and media only (BHI). […] The plate was incubated in a BioTek ELx808 Ultra microplate reader at 37 °C for 24 h at a wavelength of 590 nm. Readings were taken every 30 min for 24 h with the plate shaken mildly before each reading.

[3] = tested on: L. monocytogenes ATCC 1916; assay: Bioactivity of dissolved thuricin CD (MIC50, growth curves at OD 590 nm); format: cell-based; conditions: 24 h, 37 °C
Description: For this study, L. monocytogenes was used as an indicator strain. The minimum inhibitory concentration MIC50 was determined based on the protocol previously described by Mathur et al. ([Mathur, et al., 2017]). MIC50 was established as the concentration of peptides that inhibited 50 % of growth of L. monocytogenes ATCC 1916 ([Rea, 2010]).
Briefly, 1 mg/mL stock solutions of freeze-dried Trnα and Trnβ resuspended in 70 % IPA 0.1 % TFA in water were diluted in sterile PBS to a final concentration of 100 μg/mL (dissolved thuricin). For all the experiments in this, and the following sections, a 1:1 M ratio of Trn α: Trn β was used. The corresponding volumes of each peptide to reach 250 nM of each peptide (0.69 μg/mL Trn α + 0.72 μg/mL Trn β), 500 nM of each peptide (1.38 μg/mL Trn α + 1.43 μg/mL Trn β), 1 μM of each peptide (2.76 μg/mL Trn α + 2.86 μg/mL Trn β), and 2 μM of each peptide (5.53 μg/mL Trn α + 5.72 μg/mL Trn β) in the final well volume were added in triplicate to a 96 well plate. […] L. monocytogenes ATCC 1916 was grown in BHI broth shaking overnight at 37 °C. 150 μL of 10^5 CFU/mL bacterial culture was added to the wells with sample. Blanks were set up in triplicate with only PBS and media as well as a control containing buffer and bacterial culture. The plate was incubated in a Biotek ELx808 Ultra microplate reader at 37 °C for 24 h. Readings were taken every 30 min at 590 nm. […]

[4] = tested on: Caco-2 cells; assay: Presto blue cytotoxicity assay; format: cell-based; conditions: 5 μg/mL Trn α + 5 μg/mL Trn β, 24 h, 37 °C, absorbance 570 nm
Description: The biocompatibility of Trn αβ liposome suspension and dissolved thuricin CD with intestinal epithelial cells were tested. Caco-2 cells were grown in high glucose Dulbecco’s modified Eagle’s medium supplemented with 10 % fetal bovine serum, 1 % L-Glutamine, 1 % pen-strep, and 1 % non-essential amino acids at 37 °C, with 5 % CO2 and 95 % relative humidity. Approximately 10,000 cells were seeded per well in a 96-well plate. The plate was incubated overnight to ensure the cells adhered to the wells. The media was removed from the wells and filter-sterilized dissolved thuricin CD and Trn αβ liposome suspension samples at a final concentration of 5 μg/mL of each peptide were added 1:1 (v/v) with fresh media. Control wells were included by adding blank liposomes and just media to the cells. The plate was incubated for 24 h at 37 °C, with 5 % CO2 and 95 % relative humidity. The media was removed from the wells, 10 μL Presto blue +90 μL fresh media was added to each well and left incubating for 60 min. Finally, the absorbances of the solutions in the plate were read at 570 nm and plotted for all samples.

[5] = tested on: L. monocytogenes ATCC 1916; assay: Solution behaviour / activity of free thuricin CD in FaSSGF without enzymes; format: cell-based
Description: (§1) Fasted state simulated intestinal fluid (FaSSIF) and fasted state simulated gastric fluid (FaSSGF) were prepared using Biorelevant FaS-SIF/FaSSGF powder following the manufacturer’s instructions. Briefly, for FaSSIF, 0.21 g NaOH, 1.72 g sodium phosphate monobasic and 3.10 g NaCl were diluted in 400 mL distilled water. The solution was stirred until dissolved. The pH was then adjusted to 6.5 with 0.1 M HCl. 1.12 g FaSSIF powder was added and finally, the volume was topped up to 500 mL. For FaSSGF, 2 g NaCl was dissolved in 900 mL distilled water. The pH was adjusted to 1.6 with 1 M HCl.
Trn α and Trn β solutions at concentrations of 0.5 mg/mL in FaSSGF/FaSSIF were suspended directly from lyophilised powder (free thuricin). Further dilutions were carried out to reach concentrations of 2 times, 5 times and 10 times the MIC50 in the final volume to be used for the experiment. The suspensions were distributed in different microtubes and incubated at 37 °C, 300 rpm in an incubator for 0.5 h. An aliquot of each concentration was taken, and filter sterilized with a 0.2 μm PES filter. […] The plate was incubated in a Biotek ELx808 Ultra microplate reader at 37 °C for 24 h at a wavelength of 590 nm. Readings were taken every 30 min for 24 h with the plate shaken mildly before each one. The readings collected from those samples were considered as time 0. […]

[6] = tested on: L. monocytogenes ATCC 1916; assay: Biological activity of Trn αβ loaded liposomes vs free thuricin CD in acetate buffer; format: cell-based; conditions: 1.25 and 2.50 μg/mL of each peptide, 37 °C, 24 h, OD 590 nm, triplicate
Description: The activity of Trn αβ liposomes was evaluated following the methodology previously described for thuricin CD. Briefly, the liposome suspension was filtered with a 0.45 μm PES sterile filter. Different volumes of the sterile liposome suspension were added to reach final concentrations of Trn α and Trn β of 1.25 and 2.50 μg/mL in each well. Samples were tested in triplicate. […] 150 μL of 10^5 CFU/mL L. monocytogenes ATCC 1916 culture was added to the wells with sample. Blanks were set up in triplicate with only media, the corresponding blank liposome suspension volume, and PBS. Controls contained inoculated media and PBS. The plate was incubated in a BioTek ELx808 Ultra microplate reader at 37 °C for 24 h. Readings were taken every 30 min at 590 nm. The same procedure was followed for free thuricin (freeze dried thuricin powder directly suspended in acetate buffer).

[7] = cell-free supernatants; ref Rea, 2010; cited from earlier work
From the text: However, because of their peptide nature, bacteriocins are susceptible to degradation, aggregation, and precipitation in the body, and can show low solubility and poor permeability ([Flynn et al., 2021]). Previous reports have evaluated the heat and pH stability of thuricin CD cell-free supernatants. […] Activity was also maintained in a pH range of 2 to 9 ([Rea, 2010]). Neither quantitative nor qualitative data on the solubility of thuricin in biorel ...

[8] = molecular target: T2, trypsin (Sus scrofa, UniProt P00761); assay: Enzymatic degradation of dissolved thuricin CD by trypsin (residual antibacterial activity); format: in vitro ADME; conditions: 4.4 μg/mL Trn α + 4.4 μg/mL Trn β; 19.3 μg/ml trypsin; 3 h, 37 °C; then growth curve 24 h, OD 590 nm; triplicate
T2 construct: purchased Sigma Aldrich Ireland Ltd
Description: (§2) Trn α and Trn β stock solutions (1 mg/mL in 70 % IPA 0.1 % TFA in water) were filter sterilized and diluted to a final concentration of 100 μg/mL in sterile PBS. Pepsin activity was evaluated beforehand according to the haemoglobin assay, based on the principle that haemoglobin in water produces tyrosine peptides soluble in trichloroacetic acid (TCA) when pepsin is applied ([Brodkorb, 2019]). The activity units (AU or μmol/min), defined as the quantity of the enzyme that converts one micromole of substrate per minute, were determined before this test. Pepsin was suspended in cold 0.01 M HCl pH 2 reaching 824 activity units per mL. Trn α and Trn β were added to the same well of a 96-well plate in triplicate to give a final concentration of 5.6 μg/mL and 5.8 μg/mL respectively. […] The plate was incubated in a BioTek ELx808 Ultra microplate reader at 37 °C for 24 h at a wavelength of 590 nm. Readings were taken every 30 min for 24 h with the plate shaken mildly before each reading.
(§3) A similar procedure was followed for trypsin and chymotrypsin, but different concentrations were used, and incubation time was 3 h. […] Trypsin activity units were determined by a previously established assay based on the principle that p-toluene-sulfonyl-l-arginine methyl ester (TAME) in water produces p-toluene-sulfonyl-L-arginine plus methanol when trypsin is applied ([Brodkorb, 2019]). […]

[9] = molecular target: T3, α-chymotrypsin (Bos taurus, UniProt P00766); assay: Enzymatic degradation of dissolved thuricin CD by α-chymotrypsin (residual antibacterial activity); format: in vitro ADME; conditions: 4.4 μg/mL Trn α + 4.4 μg/mL Trn β; 19.3 μg/ml α-chymotrypsin; 3 h, 37 °C; then growth curve 24 h, OD 590 nm; triplicate
T3 construct: purchased Sigma Aldrich Ireland Ltd
Description: as §2, §3

[10] = molecular target: T1, pepsin; assay: Biological activity after incubation in FaSSGF with pepsin; format: in vitro ADME; conditions: dissolved Trn α and β, 1.2 mg/mL pepsin in FaSSGF, 30 min, 37 °C; double the MIC50; L. monocytogenes growth curve 24 h
Description: The activity of αβ liposome suspension and dissolved αβ peptides after exposing both to FaSSGF with pepsin and FaSSIF without pancreatin was analysed. No pancreatin was added to FaSSIF because it inhibitied L. monocytogenes growth itself. Trn αβ loaded liposome suspension or dissolved thuricin (thuricin powder in 70 % IPA 0.1 % TFA in water and further diluted in acetate buffer) + pepsin in FaSSGF were prepared as described in the previous section. Control samples with acetate buffer + pepsin in FaSSGF were also prepared.
After 30 min incubation, pepsin was deactivated by heating the samples at 70 °C for 10 min. The volume necessary to reach a concentration of double the MIC50 of thuricin peptides was added to a 96-well plate. The wells were topped to 50 μL with PBS. 150 μL of 10^5 CFU/mL bacterial cell culture (L. monocytogenes) was added to each well. Blanks were set with media and control samples. The plate was incubated in a BioTek ELx808 Ultra microplate reader at 37 °C for 24 h at a wavelength of 590 nm. Readings were taken every 30 min for 24 h with the plate shaken mildly before each reading.

[11] = tested on: L. monocytogenes ATCC 1916; assay: Solution behaviour / activity of free thuricin CD in FaSSIF without enzymes; format: cell-based; conditions: free thuricin suspended from solid in FaSSIF pH 6.5, 37 °C, 0.2 μm filtered, growth curve 24 h, triplicate
Description: as §1
Trn α and Trn β solutions at concentrations of 0.5 mg/mL in FaSSGF/FaSSIF were suspended directly from lyophilised powder (free thuricin). Further dilutions were carried out to reach concentrations of 2 times, 5 times and 10 times the MIC50 in the final volume to be used for the experiment. The suspensions were distributed in different microtubes and incubated at 37 °C, 300 rpm in an incubator for 0.5 h. An aliquot of each concentration was taken, and filter sterilized with a 0.2 μm PES filter. 50 μL of each sterile solution was transferred to a 96-well microtiter plate in triplicate. Each well was filled with 150 μL of a L. monocytogenes culture at an OD of 0.1. A control was set with 50 μL of FaSSGF/FaSSIF and 150 μL culture. The plate was incubated in a Biotek ELx808 Ultra microplate reader at 37 °C for 24 h at a wavelength of 590 nm. Readings were taken every 30 min for 24 h with the plate shaken mildly before each one. The readings collected from those samples were considered as time 0. In the meantime, the microtubes were put back in the incubator with reduced shaking. After 1, 4 and 24 h a new aliquot was taken, and the same protocol was followed for activity testing.

T1 sequence (P00791 60-385): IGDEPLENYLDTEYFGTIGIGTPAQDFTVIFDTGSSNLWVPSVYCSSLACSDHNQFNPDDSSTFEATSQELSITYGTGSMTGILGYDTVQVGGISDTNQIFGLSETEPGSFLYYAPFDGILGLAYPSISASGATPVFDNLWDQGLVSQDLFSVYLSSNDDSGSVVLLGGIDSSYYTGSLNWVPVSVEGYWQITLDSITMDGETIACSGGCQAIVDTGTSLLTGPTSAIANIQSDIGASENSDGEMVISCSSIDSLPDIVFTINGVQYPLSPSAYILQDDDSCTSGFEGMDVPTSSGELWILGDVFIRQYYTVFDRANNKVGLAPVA
T2 sequence (P00761 9-231): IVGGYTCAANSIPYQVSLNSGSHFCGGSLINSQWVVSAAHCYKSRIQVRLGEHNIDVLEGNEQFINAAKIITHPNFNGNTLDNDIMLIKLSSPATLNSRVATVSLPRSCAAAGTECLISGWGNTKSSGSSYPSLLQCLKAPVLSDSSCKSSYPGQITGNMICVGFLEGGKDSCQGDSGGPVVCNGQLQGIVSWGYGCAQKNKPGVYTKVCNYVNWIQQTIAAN

lacticin 3147
solubility in FaSSIF [1]: improved solubility in FaSSIF compared to PBS

thuricin CD
activity against L. monocytogenes ATCC 1916 after exposure to pepsin ([2]; pepsin 1.2 mg/mL (98.8 AU/mL), 0.01 M HCl pH 2/PBS, 1.5 h, 37 °C, 70 rpm, then growth curve 24 h, OD 590 nm, triplicate): deactivated
time for which bacterial growth was inhibited, thuricin alone (no enzyme) ([2]; positive control without pepsin, incubated 1.5 h at 37 °C before culture, growth curve 24 h): ~17 h
effect on bacterial growth ([3]; 0.25 μM of each peptide): could not significantly inhibit bacterial growth
inhibition of bacterial growth ([3]; 0.5 μM of each peptide, 1:1 M ratio): approximately 50%
cytotoxicity: absorbance compared to the control group of living cells [4]: none of the samples exhibited any significant difference in absorbance
activity of peptides pre-dissolved in 70 % IPA 0.1 % TFA in water and diluted in FaSSGF ([5]; 2, 5 and 10 times the MIC50, 1:1 molar ratio, FaSSGF pH 1.6 (Figure S3)): retained thuricin CD activity
activity after addition of lyophilised powder to FaSSGF ([5]; free thuricin suspended from solid in FaSSGF pH 1.6, 37 °C, x2, x5, x10 MIC50, 0, 1, 4, 24 h, 0.2 μm filtered, growth curve 24 h, triplicate): no activity was detected
activity of lyophilised peptides directly suspended in acetate buffer [6]: do not demonstrate any activity
heat stability at 85 °C [7]: stable
heat stability at 90 °C [7]: reducing its activity
heat stability at 100 °C [7]: complete activity loss
activity against L. monocytogenes ATCC 1916 after exposure to trypsin [8]: retained its activity
activity against L. monocytogenes ATCC 1916 after exposure to α-chymotrypsin [9]: growth comparable to the control
activity after exposure to pepsin in FaSSGF [10]: completely lost activity
activity after addition of lyophilised powder to FaSSIF, five times the MIC50 ([11]; all time points 0–24 h): activity is observed
activity after addition of lyophilised powder to FaSSIF, ten times the MIC50 ([11]; all time points 0–24 h): activity is observed
activity after addition of lyophilised powder to FaSSIF, double the MIC50 ([11]; time points 0, 1, 4, 24 h): no activity is observed
